Laboratory results taken from US11866450B2, “Modulators of Cystic Fibrosis Transmembrane Conductance regulator, pharmaceutical compositions, methods of treatment, and process for making the modulators” (priority 2018, dated 2024).

Target: CFTR-mediated chloride transport (Homo sapiens, UniProt P13569)
Format: cell-based
Conditions: enteroid cells incubated with test compound 18-24 hours, acute 10 μM forskolin and 300 nM Compound III; for Max. Activity: % of chloride transport with 3 μM Compound A, 3 μM Compound II and 300 nM acute Compound III triple combination control
Method in brief: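 Membrane-potential fluorescence AUC over 15 min quantified CFTR chloride transport after acute forskolin (10 μM), IBMX (100 μM) and Compound III (300 nM) in chloride-free buffer. Human enteroid cells were pretreated with compound for 18–24 h; % Activity is relative to 3 μM Compound A + 3 μM Compound II + 300 nM Compound III.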

Chain of CFTR-mediated chloride transport (P13569 whole entry, looked up): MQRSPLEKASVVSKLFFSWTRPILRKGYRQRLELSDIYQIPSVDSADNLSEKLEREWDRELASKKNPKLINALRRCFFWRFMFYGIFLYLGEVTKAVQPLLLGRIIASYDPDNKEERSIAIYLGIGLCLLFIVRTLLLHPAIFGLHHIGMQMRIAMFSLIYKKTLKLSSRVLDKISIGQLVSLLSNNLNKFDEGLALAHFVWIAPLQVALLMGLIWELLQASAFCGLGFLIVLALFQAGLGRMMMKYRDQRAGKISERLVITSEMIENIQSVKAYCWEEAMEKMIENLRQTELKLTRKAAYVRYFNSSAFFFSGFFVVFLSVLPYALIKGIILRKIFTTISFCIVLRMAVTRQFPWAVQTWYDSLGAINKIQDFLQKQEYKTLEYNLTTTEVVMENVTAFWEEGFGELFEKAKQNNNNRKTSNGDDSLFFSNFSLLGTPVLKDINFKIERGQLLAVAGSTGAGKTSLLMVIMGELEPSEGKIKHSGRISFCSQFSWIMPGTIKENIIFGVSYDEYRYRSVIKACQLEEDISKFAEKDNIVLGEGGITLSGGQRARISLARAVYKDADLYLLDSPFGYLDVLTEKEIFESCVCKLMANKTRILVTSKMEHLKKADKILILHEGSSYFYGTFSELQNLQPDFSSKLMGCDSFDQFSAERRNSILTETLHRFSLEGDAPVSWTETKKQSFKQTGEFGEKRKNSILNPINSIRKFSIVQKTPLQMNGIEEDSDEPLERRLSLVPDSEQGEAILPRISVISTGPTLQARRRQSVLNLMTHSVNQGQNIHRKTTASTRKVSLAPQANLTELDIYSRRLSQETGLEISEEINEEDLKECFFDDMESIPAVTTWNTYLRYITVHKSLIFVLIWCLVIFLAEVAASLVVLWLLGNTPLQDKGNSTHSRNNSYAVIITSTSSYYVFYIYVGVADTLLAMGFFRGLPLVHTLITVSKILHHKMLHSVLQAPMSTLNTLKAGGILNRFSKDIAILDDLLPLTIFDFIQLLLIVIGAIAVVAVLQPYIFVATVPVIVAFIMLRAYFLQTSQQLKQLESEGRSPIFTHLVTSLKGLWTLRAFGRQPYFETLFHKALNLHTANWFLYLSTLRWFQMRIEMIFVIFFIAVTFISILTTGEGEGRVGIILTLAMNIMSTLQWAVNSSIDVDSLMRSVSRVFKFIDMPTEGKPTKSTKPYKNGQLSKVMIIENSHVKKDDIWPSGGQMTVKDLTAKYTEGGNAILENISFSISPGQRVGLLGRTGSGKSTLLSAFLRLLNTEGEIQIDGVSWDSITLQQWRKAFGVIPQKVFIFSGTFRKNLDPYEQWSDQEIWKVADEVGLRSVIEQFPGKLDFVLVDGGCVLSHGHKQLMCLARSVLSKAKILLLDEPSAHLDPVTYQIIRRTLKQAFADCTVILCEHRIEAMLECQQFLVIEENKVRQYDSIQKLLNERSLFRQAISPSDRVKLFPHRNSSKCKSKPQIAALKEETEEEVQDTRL

With `CC1(C)C[C@@H]2CN1c1nc(-n3ccc(OCCC4(C(F)(F)F)CC4)n3)ccc1C(=O)NS(=O)(=O)c1ccn(n1)CCO2` (single isomer, unassigned) [Compound 167, 20,20-dimethyl-4-(3-{2-[1-(trifluoromethyl)cyclopropyl]ethoxy}-1H-pyrazol-1-yl)-17-oxa-10λ^6-thia-1,3,9,14,22-pentaazatetracyclo[16.2.1.111,14.02,7]docosa-2(7),3,5,11(22),12-pentaene-8,10,10-trione] the EC50 was under 1000 nM and the “Max. Activity” value was “++ (++ is 30-60%)”.

`CC(C)(C)CCO[C@H]1CCN(c2ccc3c(n2)N2C[C@@H](CCCNc4cccc(n4)S(=O)(=O)NC3=O)CC2(C)C)C1=O` (single isomer, unassigned) [Compound 170] was tested, and the EC50 was under 1000 nM and the “Max. Activity” value was “++ (++ is 30-60%)”.

With `CC(C)(C)CCO[C@H]1CCN(c2ccc3c(n2)N2C[C@@H](CCCNc4cccc(n4)S(=O)(=O)NC3=O)CC2(C)C)C1=O` (single isomer, unassigned) [Compound 171] the EC50 was under 1000 nM and the “Max. Activity” value was “+++ (+++ is >60%)”.

With `CC1(C)C[C@@H]2CCCNc3cccc(n3)S(=O)(=O)NC(=O)c3ccc(N4CC[C@H](OCCC5(C(F)(F)F)CC5)C4=O)nc3N1C2` (single isomer, unassigned) [Compound 172] the EC50 was under 1000 nM and the “Max. Activity” value was “++ (++ is 30-60%)”.

In the case of `CC1(C)C[C@@H]2CCCNc3cccc(n3)S(=O)(=O)NC(=O)c3ccc(N4CC[C@H](OCCC5(C(F)(F)F)CC5)C4=O)nc3N1C2` (single isomer, unassigned) [Compound 173], the EC50 is reported as under 1000 nM and the “Max. Activity” value is reported as “+++ (+++ is >60%)”.

For `CC1(C)C[C@@H]2CCCNc3cccc(n3)S(=O)(=O)NC(=O)c3ccc(N4CC[C@H](CCCC5(C(F)(F)F)CC5)C4=O)nc3N1C2` (single isomer, unassigned) [Compound 174], the EC50 was under 1000 nM and the “Max. Activity” value was “+++ (+++ is >60%)”.

For `CC1(C)C[C@@H]2CCCNc3cccc(n3)S(=O)(=O)NC(=O)c3ccc(N4CC[C@H](CCCC5(C(F)(F)F)CC5)C4=O)nc3N1C2` (single isomer, unassigned) [Compound 175], the EC50 was under 1000 nM and the “Max. Activity” value was “+++ (+++ is >60%)”.

With `CC1(C)C[C@@H]2CCCNc3cccc(n3)S(=O)(=O)NC(=O)c3ccc(N4CC[C@H](CCC5C6(CC6)C56CC6)C4=O)nc3N1C2` (single isomer, unassigned) [Compound 177] the EC50 was under 1000 nM and the “Max. Activity” value was “++ (++ is 30-60%)”.

For `CC1(C)C[C@@H]2CCCNc3cccc(n3)S(=O)(=O)NC(=O)c3ccc(N4CC[C@H](CCC5C6(CC6)C56CC6)C4=O)nc3N1C2` (single isomer, unassigned) [Compound 178], the EC50 was under 1000 nM and the “Max. Activity” value was “+++ (+++ is >60%)”.

In the case of `CC1(C)C[C@@H]2CCCNc3cccc(n3)S(=O)(=O)NC(=O)c3ccc(N4CC[C@H](OCCC5C6(CC6)C56CC6)C4=O)nc3N1C2` (single isomer, unassigned) [Compound 179], the EC50 is reported as under 1000 nM and the “Max. Activity” value is reported as “++ (++ is 30-60%)”.

For `CC1(C)C[C@@H]2CCCNc3cccc(n3)S(=O)(=O)NC(=O)c3ccc(N4CC[C@H](OCCC5C6(CC6)C56CC6)C4=O)nc3N1C2` (single isomer, unassigned) [Compound 180], the EC50 was under 1000 nM and the “Max. Activity” value was “+++ (+++ is >60%)”.

In the case of `CC1(C)C[C@H]2CCCn3ccc(n3)S(=O)(=O)NC(=O)c3ccc(N4CC[C@H](CCCC5(C(F)(F)F)CC5)C4=O)nc3N1C2` (single isomer, unassigned) [Compound 181, 20,20-Dimethyl-4-(2-oxo-3-{3-[1-(trifluoromethyl)cyclopropyl]propyl}pyrrolidin-1-yl)-10λ^6-thia-1,3,9,14,22-pentaazatetracyclo[16.2.1.111,14.02,7]docosa-2,4,6,11(22),12-pentaene-8,10,10-trione], the EC50 is reported as 1000 to 3000 nM and the “Max. Activity” value is reported as “++ (++ is 30-60%)”.

In the case of `CC1(C)C[C@H]2CCCn3ccc(n3)S(=O)(=O)NC(=O)c3ccc(N4CC[C@H](CCCC5(C(F)(F)F)CC5)C4=O)nc3N1C2` (single isomer, unassigned) [Compound 182, 20,20-dimethyl-4-(2-oxo-3-{3-[1-(trifluoromethyl)cyclopropyl]propyl}pyrrolidin-1-yl)-10λ^6-thia-1,3,9,14,22-pentaazatetracyclo[16.2.1.111,14.02,7]docosa-2,4,6,11(22),12-pentaene-8,10,10-trione], the EC50 is reported as under 1000 nM and the “Max. Activity” value is reported as “++ (++ is 30-60%)”.

With `CC1(C)C[C@H]2CCCn3ccc(n3)S(=O)(=O)NC(=O)c3ccc(N4CC[C@H](OCCC5(C(F)(F)F)CC5)C4=O)nc3N1C2` (single isomer, unassigned) [Compound 191, 20,20-Dimethyl-4-(2-oxo-3-{2-[1-(trifluoromethyl)cyclopropyl]ethoxy}pyrrolidin-1-yl)-10λ^6-thia-1,3,9,14,22-pentaazatetracyclo[16.2.1.111,14.02,7]docosa-2,4,6,11(22),12-pentaene-8,10,10-trione] the EC50 was under 1000 nM and the “Max. Activity” value was “++ (++ is 30-60%)”.

For `CC1(C)C[C@H]2CCCn3ccc(n3)S(=O)(=O)NC(=O)c3ccc(N4CC[C@H](OCCC5(C(F)(F)F)CC5)C4=O)nc3N1C2` (single isomer, unassigned) [Compound 192, 20,20-dimethyl-4-(2-oxo-3-{2-[1-(trifluoromethyl)cyclopropyl]ethoxy}pyrrolidin-1-yl)-10λ^6-thia-1,3,9,14,22-pentaazatetracyclo[16.2.1.111,14.02,7]docosa-2,4,6,11(22),12-pentaene-8,10,10-trione], the EC50 was under 1000 nM and the “Max. Activity” value was “+++ (+++ is >60%)”.

In the case of `CC1(C)C[C@@H]2CN1c1nc(-n3ccc(OCCC4C5(CC5)C45CC5)n3)ccc1C(=O)NS(=O)(=O)c1cccc(n1)NCCO2` (single isomer, unassigned) [Compound 196, 8-[3-(2-{dispiro[2.0.2.1]heptan-7-yl}ethoxy)-1H-pyrazol-1-yl]-12,12-dimethyl-15-oxa-2λ^6-thia-3,9,11,18,23-pentaazatetracyclo[17.3.1.111,14.05,10]tetracosa-1(23),5(10),6,8,19,21-hexaene-2,2,4-trione], the EC50 is reported as 1000 to 3000 nM and the “Max. Activity” value is reported as “++ (++ is 30-60%)”.

For `CC1(C)C[C@@H]2CN1c1nc(-n3ccc(OCCC4C5(CC5)C45CC5)n3)ccc1C(=O)NS(=O)(=O)c1cccc(n1)NCCO2` (single isomer, unassigned) [Compound 197, 8-[3-(2-{dispiro[2.0.2.1]heptan-7-yl}ethoxy)-1H-pyrazol-1-yl]-12,12-dimethyl-15-oxa-2λ^6-thia-3,9,11,18,23-pentaazatetracyclo[17.3.1.111,14.05,10]tetracosa-1(23),5(10),6,8,19,21-hexaene-2,2,4-trione], the EC50 was under 1000 nM and the “Max. Activity” value was “+++ (+++ is >60%)”.

In the case of `Cc1cn2nc1S(=O)(=O)NC(=O)c1ccc(-n3ccc(OCCC(C4CC4)C4CC4)n3)nc1N1C[C@H](CCC2)CC1(C)C` (single isomer, unassigned) [Compound 201, 4-[3-(3,3-Dicyclopropylpropoxy)-1H-pyrazol-1-yl]-12,20,20-trimethyl-10λ^6-thia-1,3,9,14,22-pentaazatetracyclo[16.2.1.111,14.02,7]docosa-2(7),3,5,11(22),12-pentaene-8,10,10-trione], the EC50 is reported as over 3000 nM and the “Max. Activity” value is reported as “+ (+ is <30%)”.
